Test results reported in PMC4170777, “Effect of Temperature on Xylanase II from Trichoderma reesei QM 9414: A Calorimetric, Catalytic, and Conformational Study” (Enzyme Research, 2014).

Biological target: T1, xylanase II (XYN II) (Trichoderma reesei, UniProt P36217)
T1 construct: gene xyn2; native secreted enzyme purified from wheat-straw culture supernatant of T. reesei QM 9414
Test: differential scanning calorimetry
Type: binding
Settings: 0.4 M GL, 1 mg/mL protein, 0.1 M sodium citrate pH 5, scan rate 15°C/h; absolute Tm, not a shift; control without GL 57.27°C (irreversible)
Description: differential scanning calorimetry on xylanase II (XYN II)

T1 sequence (P36217 34-223): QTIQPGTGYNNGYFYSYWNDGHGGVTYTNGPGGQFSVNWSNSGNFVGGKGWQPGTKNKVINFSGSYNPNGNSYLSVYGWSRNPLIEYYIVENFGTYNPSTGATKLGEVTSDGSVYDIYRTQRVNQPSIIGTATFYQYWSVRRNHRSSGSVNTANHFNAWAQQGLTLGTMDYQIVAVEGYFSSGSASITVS

SMILES: O=C1O[C@H](CO)[C@@H](O)[C@H](O)[C@H]1O (mixture of isomers) [GL, D-glucono-1,5-lactone]
- Global: 54.1 °C
